Experimental data as given in patent US20080027033A1, “Method and Composition for Treatment of Cutaneous Lesions” (Acrux DDS Pty Ltd, priority 2003, published 2008).

Assay: diffusion across skin after transdermal spray administration
Conditions: effect of adding octyl salicylate to the transdermal spray formulation (Example 1); predicted cumulative amount, FIGS. 1 and 2

amount diffusing across the skin over 24 hours: significant marked increase
SMILES: C[C@]12CC[C@@H]3c4ccc(O)cc4CC[C@H]3[C@@H]1CC[C@@H]2O [estradiol]
